For data set [1], the system named is frozen PBMCs. The experiment in a line: circBRIP1 level in frozen human PBMCs. The class given is cell-based. Particulars: 10 μM, 24 hours, frozen PBMCs from three donors, vs vehicle; FIG. 8A. On the procedure: As proof of concept, circBRIP1 levels were examined in peripheral blood mononuclear cells (PMBCs) using frozen PBMCs from donors after treatment with a DHX9 inhibitor.
Frozen PBMCs were thawed in a 37° C. water bath, washed, and reconstituted in media. The same number of cells were added to each well of 12-well plates and let rest for 2 hours before being subjected to testing conditions. Compound 1 was dissolved in DMSO at 10 mM as a stock solution, and diluted to a desired concentration. Frozen PBMCs from three donors or LS411N cells (positive control) were treated with 10 μM of Compound 1 or control vehicle for 24 hours. The circBRIP1 level was determined using methods essentially as described above.

A short description of data set [2]: Intra-tumoral pharmacokinetics bioanalytical assay. The data set is classed as in vivo, female BALB/c nude mice. Particulars: BID oral, 21 days; four parameter non-linear regression; FIG. 4C. As to the method: Intra-tumoral Pharmacokinetics Bioanalytical Assay: Tumors were collected at 1 h and 12 h post the last dose and cut into 3 pieces. One piece of the tumor was weighted and snap frozen for drug exposure analysis. On the assay day, 3 volumes of H2O were added to the tumor tissue (3 mL to each gram of tissue), and homogenate at 4 degrees Celsius. The homogenate (30 μL) was mixed with 15 μL blank solution, then extracted and protein precipitation with 200 μL of acetonitrile containing IS (internal standard, dexamethasone). After vortexed for 30 s, the samples were centrifuged at 4 degrees Celsius, 3900 rpm for 15 minutes. The supernatant was diluted 3 times with water and 2 μL of diluted supernatant was injected into the LC/MS/MS system for quantitative analysis (AB API 5500). The Q1 to Q3 mass transition (m/z, Da) were 393.11 to 373.10 for dexamethasone and 421.98 to 202.30 for test compound. […]
The concentration in the homogenate was quantified using standards prepared in control tumor tissues with concentrations range 0.5, 1, 2, 5, 10, 50, 100, 500, 1000 ng/mL. The determined concentration in the tumor homogenate was then back calculated to that in tumor tissue by multiplying with a dilution factor of 4.

For data set [3], the system named is LS411N tumors. The experiment in a line: Intra-tumoral human circBRIP1 analysis, LS411N xenograft. The data set is classed as in vivo, human xenograft in female BALB/c nude mice. Particulars: 30, 100, 200 and 300 mg/kg BID oral, 21 days, 12 hours post last dose; FIG. 4A. As to the method:
This study was conducted to evaluate pharmacodynamics (PD) and pharmacokinetics (PK) of intra-tumoral circular BRIP1 with efficacy of a DHX9 inhibitor (Compound 1, as shown in Table 1).
In vivo Efficacy Study: Experiments were performed in female BALB/c nude mice (GenPharmatech Co.). Animals were allowed to acclimate for 7 days before the study. The general health of the animals were evaluated by a veterinarian, and complete health checks were performed prior to the study. […] Animals were housed in polycarbonate cage which is the size of 300×180×150 mm^3 and in an environmentally monitored, well-ventilated room maintained at a temperature of (23±3° C.) and a relative humidity of 40% 70%. […]
(§1) The LS411N (ATCC; CRL-2159) tumor cell lines were maintained in vitro as monolayer in RPMI 1640 medium supplemented with 10% heat inactivated FBS, at 37° C. in an atmosphere of 5% CO2 in air. The tumor cells were sub-cultured, not exceeding 4-5 passages, and cells growing in an exponential growth phase were harvested and counted for tumor inoculation. […]
Data analysis was performed by using the QuantStudio Thermocycler software to determine threshold Ct values. ΔCt for circBRIP1 or linBRIP1 is calculated by normalizing the target gene Ct to the GAPDH housekeeping gene Ct for each sample. The inhibition activity is calculated by the following formula, whereas: […]
(Xenograft models place foreign cells or tissue in a host animal.)

For data set [4], the system named is LS411N tumors. The experiment in a line: In vivo efficacy study, tumor volume, LS411N xenograft. The note with it: BID oral, 21 days; FIG. 4B. The arrangement: species or system human xenograft in female BALB/c nude mice. On the procedure:
In vivo Efficacy Study: Experiments were performed in female BALB/c nude mice (GenPharmatech Co.). Animals were allowed to acclimate for 7 days before the study. The general health of the animals were evaluated by a veterinarian, and complete health checks were performed prior to the study. General procedures for animal care and housing were in accordance with the standard, Commission on Life Sciences, National Research Council, Standard Operating Procedures (SOPs) of Pharmaron, Inc. The mice were kept in laminar flow rooms at constant temperature and humidity with 3-5 mice in each cage. Animals were housed in polycarbonate cage which is the size of 300×180×150 mm^3 and in an environmentally monitored, well-ventilated room maintained at a temperature of (23±3° C.) and a relative humidity of 40% 70%. Fluorescent lighting provided illumination approximately 12 hours per day. […]
as §1
The measurement of tumor size was conducted with a caliper and recorded twice per week. […]

One compound from patent publication US20260297679A1, “ASSAYS FOR MONITORING INHIBITION OF RNA HELICASE DHX9” (ACCENT THERAPEUTICS, INC., priority 2023, published 2026) can be followed below.

Turning to `Cc1cccnc1-c1csc(C(=O)Nc2cc(Cl)cc(NS(C)(=O)=O)c2)c1` [Compound 1, N-(3-chloro-5-methanesulfonamidophenyl)-4-(3-methylpyridin-2-yl)thiophene-2-carboxamide], the “circBRIP1 level in PBMCs” value in data set [1] was “significantly elevated”. In addition, the “correlation of tumor drug exposure to circBRIP1 induction” value in data set [2] is “correlate to circBRIP1 induction”. In addition, the “intra-tumoral circBRIP1 induction” value in data set [3] is on record as “Dose-dependent intra-tumoral circBRIP1 induction was observed”. Further, the “correlation of tumor volume to circBRIP1 induction” value in data set [4] was “correlate to circBRIP1 induction”.
